Laboratory results as given in PMC10035947, “Development of novel anilinoquinazoline-based carboxylic acids as non-classical carbonic anhydrase IX and XII inhibitors” (Journal of Enzyme Inhibition and Medicinal Chemistry, 2023).
Like-named read-outs stand apart in the source and are kept apart here.

Columns and labels:
CCRF-CEM = test: NCI SRB assay; type: cell-based, human; conditions: 5-dose; for CC50: read-out: LC50 (the source's name)
MOLT-4 = test: NCI SRB assay; type: cell-based, human; conditions: for CC50: read-out: LC50 (the source's name)
MDA-MB-468 = test: NCI SRB assay; type: cell-based, human; conditions: for CC50: read-out: LC50 (the source's name)
NCI/ADR-RES = test: NCI SRB assay; type: cell-based, human; conditions: for CC50: read-out: LC50 (the source's name)
K-562 = test: NCI SRB assay; type: cell-based, human; conditions: for CC50: read-out: LC50 (the source's name)
A549/ATCC = test: NCI SRB assay; type: cell-based, human
BT-549 = test: NCI SRB assay; type: cell-based, human
SK-MEL-5 = test: NCI SRB assay; type: cell-based, human
EKVX = test: NCI SRB assay; type: cell-based, human; conditions: for GI50 / LC50 (concentration killing 50% of cells) / TGI: 5-dose
NCI-H226 = test: NCI SRB assay; type: cell-based, human
A498 = test: NCI SRB assay; type: cell-based, human; conditions: for CC50: read-out: LC50 (the source's name)
MCF7 = test: NCI SRB assay; type: cell-based, human; conditions: for CC50: read-out: LC50 (the source's name)
hCA XII = target: T1, hCA XII (Homo sapiens, UniProt O43570); test: stopped flow CO2 hydrase assay; type: biochemical
T1 construct: made in house
Procedure: (§1) Carbonic anhydrase inhibition assay
(§2) The carbonic anhydrase catalyzed CO2 hydration actions for the quinazoline-based […]
(§3) Photophysics stopped-flow, as described previously. The enzymes are recombinant proteins prepared in our lab. Phenol red (at a concentration of 0.2 mM) has been used as indicator, working at the absorbance maximum of 557 nm, with 20 mM Hepes (pH 7.5) as buffer, and 20 mM Na2SO4 (for maintaining constant the ionic strength), following the initial rates of the CA- […]
(§4) 1.7 to 17 mM for the determination of the kinetic parameters and inhibition constants. For each […]
(§5) initial velocity. The uncatalyzed rates were determined in the same manner and subtracted from the total observed rates. Stock solutions of inhibitor (0.1 mM) were prepared in distilled-deionized water and dilutions up to 0.01 nM were done thereafter with the assay buffer. Inhibitor and enzyme solutions were preincubated together for 15 min at room temperature prior to assay, in order to allow for the formation of the E-I complex. The inhibition constants were obtained by non-linear least-squares methods using PRISM 3 and the Cheng-Prusoff equation, and represent the mean from at least three different determinations.

hCA IX = target: T2, hCA IX (Homo sapiens, UniProt Q16790); test: stopped flow CO2 hydrase assay; type: biochemical
T2 construct: made in house
Procedure: as §1, §2, §3, §4, §5

hCA I = target: T3, hCA I (Homo sapiens, UniProt P00915); test: stopped flow CO2 hydrase assay; type: biochemical; conditions: mean from 3 assays
T3 construct: made in house
Procedure: as §1, §2, §3, §4, §5

[1] = Homo sapiens, MDA-MB-468, MDA-MB-468, 5-dose
[2] = Homo sapiens, K562, K-562, 5-dose
[3] = Homo sapiens, MCF7, MCF7, 5-dose

T1 sequence (O43570 25-354): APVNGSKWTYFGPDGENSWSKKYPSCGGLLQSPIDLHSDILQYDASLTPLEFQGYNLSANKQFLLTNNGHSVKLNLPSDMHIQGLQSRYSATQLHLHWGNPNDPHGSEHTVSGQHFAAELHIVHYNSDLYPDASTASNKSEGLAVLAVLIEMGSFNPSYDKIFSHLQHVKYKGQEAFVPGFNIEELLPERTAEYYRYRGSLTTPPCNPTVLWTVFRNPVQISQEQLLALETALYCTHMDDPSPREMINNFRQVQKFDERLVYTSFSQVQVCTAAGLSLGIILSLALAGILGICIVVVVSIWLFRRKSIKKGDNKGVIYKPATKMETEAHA
T3 sequence (P00915 whole entry): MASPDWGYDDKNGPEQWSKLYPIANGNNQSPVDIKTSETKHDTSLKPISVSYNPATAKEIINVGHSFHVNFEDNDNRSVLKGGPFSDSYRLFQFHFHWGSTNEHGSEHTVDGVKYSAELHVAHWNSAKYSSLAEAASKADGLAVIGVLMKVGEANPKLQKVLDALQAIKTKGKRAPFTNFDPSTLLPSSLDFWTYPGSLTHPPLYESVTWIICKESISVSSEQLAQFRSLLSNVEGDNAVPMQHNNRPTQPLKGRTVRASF

Cc1ccc(-c2nc(Nc3ccccc3C(=O)O)c3ccccc3n2)cc1 [6b, 2-((2-(p-Tolyl)quinazolin-4-yl)amino)benzoic acid]
GI50 (CCRF-CEM): 5.7 µM | TGI (CCRF-CEM): <100 µM | TGI (CCRF-CEM; listed as D - 835857): > 1.00E-4 Molar | CC50 (CCRF-CEM): < 100 µM | GI50 (CCRF-CEM; Homo sapiens): 5.72 µM | CC50 (CCRF-CEM; Homo sapiens): > 100 µM | CC50 (MOLT-4; Homo sapiens, MOLT-4, MOLT-4, 5-dose): > 100 µM | GI50 (MOLT-4; Homo sapiens, MOLT-4, 5-dose): 11.7 µM | GI% (MOLT-4; MOLT-4, 10 μM): 89% | Growth Percent (MOLT-4; MOLT-4, 1.00E-5 Molar): 10.91% | TGI (MOLT-4; MOLT-4, 5-dose): <100 µM | TGI (MOLT-4; MOLT-4, 5-dose, listed as D - 835857): > 1.00E-4 Molar | CC50 (MOLT-4; MOLT-4, 5-dose): < 100 µM | GI50 (MDA-MB-468; [1]): 8.29 µM | CC50 (MDA-MB-468; [1]): > 100 µM | GI% (MDA-MB-468; MDA-MB-468, 10 μM): 126% | Growth Percent (MDA-MB-468; MDA-MB-468, 1.00E-5 Molar): -26.88% | GI50 (MDA-MB-468; MDA-MB-468, 5-dose): 8.3 µM | TGI (MDA-MB-468; MDA-MB-468, 5-dose, listed as D - 835857): 4.23E-5 Molar | CC50 (MDA-MB-468; MDA-MB-468, 5-dose): < 100 µM | GI% (NCI/ADR-RES; 10 μM): 95% | Growth Percent (NCI/ADR-RES; 1.00E-5 Molar): 5.16% | TGI (NCI/ADR-RES; 5-dose): 98.5 µM | TGI (NCI/ADR-RES; 5-dose, listed as D - 835857): 9.85E-5 Molar | CC50 (NCI/ADR-RES; 5-dose): < 100 µM | GI50 (NCI/ADR-RES; Homo sapiens, 5-dose): 16.8 µM | CC50 (NCI/ADR-RES; Homo sapiens, 5-dose): > 100 µM | GI50 (K-562; [2]): 7.05 µM | CC50 (K-562; [2]): > 100 µM | GI% (K-562; K-562, 10 μM): 82% | Growth Percent (K-562; K-562, 1.00E-5 Molar): 17.64% | TGI (K-562; K-562, 5-dose): <100 µM | TGI (K-562; K-562, 5-dose, listed as D - 835857): > 1.00E-4 Molar | CC50 (K-562; K-562, 5-dose): < 100 µM | GI% (A549/ATCC; A549/ATCC, 10 μM): 70% | Growth Percent (A549/ATCC; A549/ATCC, 1.00E-5 Molar): 30.48% | LC50 (A549/ATCC; A549/ATCC, 5-dose): < 100 µM | TGI (A549/ATCC; A549/ATCC, 5-dose): <100 µM | TGI (A549/ATCC; A549/ATCC, 5-dose, listed as D - 835857): > 1.00E-4 Molar | LC50 (A549/ATCC; Homo sapiens, A549, A549/ATCC, 5-dose): > 100 µM | GI50 (A549/ATCC; Homo sapiens, A549/ATCC, 5-dose): 8.31 µM | GI% (BT-549; BT-549, 10 μM): 123% | Growth Percent (BT-549; BT-549, 1.00E-5 Molar): -23.53% | TGI (BT-549; BT-549, 5-dose): 33.8 µM | TGI (BT-549; BT-549, 5-dose, listed as D - 835857): 3.38E-5 Molar | GI50 (BT-549; Homo sapiens, BT-549, 5-dose): 14.6 µM | CC50 (BT-549; Homo sapiens, BT-549, 5-dose, read-out: LC50 (the source's name)): 78.1 µM | GI50 (SK-MEL-5; Homo sapiens, SK-MEL-5, SK-MEL-5, 5-dose): 5.32 µM | CC50 (SK-MEL-5; Homo sapiens, SK-MEL-5, 5-dose, read-out: LC50 (the source's name)): 57.5 µM | GI% (SK-MEL-5; SK-MEL-5, 10 μM): 124% | Growth Percent (SK-MEL-5; SK-MEL-5, 1.00E-5 Molar): -24.79% | GI50 (SK-MEL-5; SK-MEL-5, 5-dose): 5.3 µM | TGI (SK-MEL-5; SK-MEL-5, 5-dose): 20.3 µM | TGI (SK-MEL-5; SK-MEL-5, 5-dose, listed as D - 835857): 2.03E-5 Molar | GI% (EKVX; 10 μM): 87% | Growth Percent (EKVX; 1.00E-5 Molar): 13.07% | GI50 (EKVX): 8.9 µM | LC50 (concentration killing 50% of cells) (EKVX): < 100 µM | TGI (EKVX): 56.2 µM | TGI (EKVX; listed as D - 835857): 5.62E-5 Molar | GI50 (EKVX; Homo sapiens): 8.89 µM | LC50 (concentration killing 50% of cells) (EKVX; Homo sapiens): > 100 µM | LC50 (NCI-H226; Homo sapiens, NCI-H226, NCI-H226, 5-dose): > 100 µM | GI50 (NCI-H226; Homo sapiens, NCI-H226, 5-dose): 10.2 µM | GI% (NCI-H226; NCI-H226, 10 μM): 85% | Growth Percent (NCI-H226; NCI-H226, 1.00E-5 Molar): 15.34% | LC50 (NCI-H226; NCI-H226, 5-dose): < 100 µM | TGI (NCI-H226; NCI-H226, 5-dose): 54.2 µM | TGI (NCI-H226; NCI-H226, 5-dose, listed as D - 835857): 5.42E-5 Molar | GI% (A498; A498, 10 μM): 78% | Growth Percent (A498; A498, 1.00E-5 Molar): 21.64% | TGI (A498; A498, 5-dose): 58.1 µM | TGI (A498; A498, 5-dose, listed as D - 835857): 5.81E-5 Molar | CC50 (A498; A498, 5-dose): < 100 µM | CC50 (A498; Homo sapiens, A498, A498, 5-dose): > 100 µM | GI50 (A498; Homo sapiens, A498, 5-dose): 19.9 µM | GI50 (MCF7; [3]): 9.41 µM | CC50 (MCF7; [3]): > 100 µM | GI% (MCF7; MCF7, 10 μM): 92% | Growth Percent (MCF7; MCF7, 1.00E-5 Molar): 7.70% | GI50 (MCF7; MCF7, 5-dose): 9.4 µM | TGI (MCF7; MCF7, 5-dose): 89.9 µM | TGI (MCF7; MCF7, 5-dose, listed as D - 835857): 8.99E-5 Molar | CC50 (MCF7; MCF7, 5-dose): < 100 µM | Selectivity ratio I/XII (hCA XII; KI hCA I / KI hCA XII): 14.1 | Selectivity ratio II/XII (hCA XII; KI hCA II / KI hCA XII): 6.79 | Ki (hCA XII; mean from 3 assays): 7.1 µM | Selectivity ratio II/IX (hCA IX; KI hCA II / KI hCA IX): 1.40 | Ki (hCA IX; mean from 3 assays): 34.4 µM | Ki (hCA I): > 100 µM
